{"source": "patent US8173392B2", "about": "“In vivo incorporation of unnatural amino acids” (The Scripps Research Institute, priority 2001, dated 2012)", "key": {"[1]": {"test_system": "glutamine uptake pathway of DH10B", "experiment": "complementation of toxic glutamine alleles S27 and S47 (cellular uptake)", "format": "cell-based, E. coli", "settings": "2 mM, complementation of S27 (100 μM) and S47 (30 μM)", "description": "To identify possible uptake pathways for toxic amino acids, toxicity assays are optionally repeated at IC50 levels, e.g., in media supplemented with an excess of a structurally similar natural amino acid. For toxic amino acids, the presence of excess natural amino acid typically rescues the ability of the cells to grow in the presence of the toxin, presumably because the natural amino acid effectively outcompetes the toxin for either cellular uptake or for binding to essential enzymes. In these cases, the toxic amino acid is optionally assigned a possible uptake pathway and labeled a “lethal allele” whose complementation is required for cell survival. These lethal alleles are extremely useful for assaying the ability of cells to uptake nontoxic unnatural amino acids. […] A lack of complementation is inconclusive. For example studies and conclusions see the examples provided below.\nFor toxic amino acids, the presence of excess natural amino acid rescued the ability of the cells to grow in the presence of the toxin, presumably because the natural amino acid effectively outcompeted the toxin for either cellular uptake or for binding to essential enzymes. […]\nUsing this method, the ability of 22 glutamine and glutamic acid analogs to be taken up by DH10B was evaluated. […]"}, "[2]": {"test_system": "DH10B harboring pBLAM-YQRS and pACYsupA38", "experiment": "cell toxicity screen of unnatural amino acids in glycerol minimal media", "format": "cell-based, E. coli", "settings": "concentration used as lethal allele at IC50 level", "excerpt": "For example, a variety of unnatural amino acids are optionally screened in minimal media for toxicity to cells. Toxicities are typically sorted into five groups: (1) no toxicity, in which no significant change in doubling times occurs; (2) low toxicity, in which doubling times increase by less than about 10%; (3) moderate toxicity, in which doubling times increase by about 10% to about 50%; (4) high toxicity, in which doubling times increase by about 50% to about 100%; and (5) extreme toxicity, in which doubling times increase by more than about 100%. […] The toxicity of the amino acids scoring as highly or extremely toxic is typically measured as a function of their concentration to obtain IC50 values.\nA variety of unnatural amino acids and α-hydroxy acids of interest, obtained commercially or by short syntheses from available starting materials (I. Shin, B. Herberich, A. Varvak, T. Magliery, P. Schultz, unpublished results, were screened for cell toxicity). […] Each amino acid wasscreened at 1 mM in glycerol minimal media for toxicity to cells, e.g., to DH10B harboring pBLAM-YQRS and pACYsupA38.\nThe toxicity of amino acids scoring as highly or extremely toxic is typically measured as a function of their concentration to obtain IC50 values. […]"}}}
{"smiles": "NNC(=O)CCC(N)C(=O)O", "note": "(centres unmarked) [S47]", "values": [{"measurement": "cellular uptake, possibly via the glutamine uptake pathway", "setting": "[1]", "value": "uptaken by cells"}, {"measurement": "IC50", "setting": "[2]", "value": 30, "unit": "µM"}]}
